# Data taken from ChEMBL document CHEMBL4739716, “Gpr139 receptor modulators” (2020).
# Assays:
# [1] = target: T1, Probable G-protein coupled receptor 139 (Homo sapiens, UniProt Q6DWJ6); experiment: Agonist activity at human GPR139 expressed in CHO-K1 cells assessed as induction of beta-arrestin 2 recruitment incubated for 90 mins by PathHunter assay; format: cell-based
# T1 sequence (Q6DWJ6 whole entry): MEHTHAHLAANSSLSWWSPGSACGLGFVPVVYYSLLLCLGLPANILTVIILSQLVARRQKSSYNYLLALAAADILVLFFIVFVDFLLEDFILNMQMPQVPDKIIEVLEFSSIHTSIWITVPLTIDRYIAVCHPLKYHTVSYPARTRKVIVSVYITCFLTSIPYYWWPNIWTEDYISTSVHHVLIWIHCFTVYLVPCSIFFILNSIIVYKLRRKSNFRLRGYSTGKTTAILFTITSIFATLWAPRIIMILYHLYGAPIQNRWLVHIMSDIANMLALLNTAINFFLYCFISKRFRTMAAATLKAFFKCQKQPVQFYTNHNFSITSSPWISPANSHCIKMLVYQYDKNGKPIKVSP
# [2] = target: T2, Probable G-protein coupled receptor 139 (Homo sapiens) (UniProt Q6DWJ6); experiment: Agonist activity at human GPR139 expressed in CHO-K1 cells assessed as induction of beta-arrestin 2 recruitment incubated for 90 mins by PathHunter assay relative to JNJ63533054; format: cell-based
# T2 sequence (whole entry): T1 sequence (Q6DWJ6 whole entry)
# [3] = target: T2, Probable G-protein coupled receptor 139 (Homo sapiens); experiment: Agonist activity at human GPR139 expressed in CHO-K1 cells assessed as increase in calcium flux by calcium 5 dye based FLIPR assay relative to JNJ63533054; format: functional, cell-based; details: filed as agonist
# [4] = target: T3, Probable G-protein coupled receptor 139 (Rattus norvegicus, UniProt P0C0W8); experiment: Agonist activity at rat GPR139 expressed in CHO-K1 cells assessed as increase in calcium flux by calcium 5 dye based FLIPR assay; format: cell-based
# T3 sequence (P0C0W8 whole entry): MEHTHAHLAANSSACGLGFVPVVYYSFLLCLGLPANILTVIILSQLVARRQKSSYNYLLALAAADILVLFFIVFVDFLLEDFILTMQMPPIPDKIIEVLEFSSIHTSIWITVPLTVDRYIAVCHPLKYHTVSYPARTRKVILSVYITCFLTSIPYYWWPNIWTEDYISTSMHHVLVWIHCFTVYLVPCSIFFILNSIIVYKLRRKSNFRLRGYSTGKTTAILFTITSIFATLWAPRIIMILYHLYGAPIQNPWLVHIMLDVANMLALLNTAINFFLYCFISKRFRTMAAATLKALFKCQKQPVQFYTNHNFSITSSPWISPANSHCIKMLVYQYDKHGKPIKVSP
# [5] = target: T4, Probable G-protein coupled receptor 139 (Rattus norvegicus) (UniProt P0C0W8); experiment: Agonist activity at rat GPR139 expressed in CHO-K1 cells assessed as increase in calcium flux by calcium 5 dye based FLIPR assay relative to JNJ63533054; format: cell-based
# T4 sequence (whole entry): T3 sequence (P0C0W8 whole entry)
# [6] = target: T1, Probable G-protein coupled receptor 139; experiment: Agonist activity at human GPR139 expressed in CHO-K1 cells assessed as increase in calcium flux by calcium 5 dye based FLIPR assay; format: functional, cell-based
Compound,EC50 ([1]; cho-k1) [nM],Emax [2] [%],Emax [3] [%],EC50 [4] [nM],Emax [5] [%],EC50 ([6]; cho-k1) [nM],EC50 [1] [nM],Emax ([2]; filed as agonist) [%],EC50 ([4]; cho-k1) [nM],Emax ([5]; filed as agonist) [%],EC50 [6] [nM]
Cc1ccc([C@H](C)NC(=O)Cn2nc3ncccn3c2=O)cc1Cl,,,> 80,,,1,≥ 100,> 80,10,> 80,
Cc1ccn2c(=O)n(CC(=O)N[C@@H](C)c3ccc(Cl)c(F)c3)nc2n1,1,25,> 80,≥ 100,,1,,,,50,
Cc1ccc([C@H](C)NC(=O)Cn2nc3cccnn3c2=O)cc1F,10,,> 80,,,1,,50,1,50,
C[C@H](NC(=O)Cn1nc2cccnn2c1=O)c1ccc(Cl)c(Cl)c1,10,,> 80,,,1,,50,1,50,
Cc1ccnn2c(=O)n(CC(=O)N[C@@H](C)c3ccc(Cl)c(F)c3)nc12,10,,> 80,,,,,> 80,1,> 80,< 1
Cc1cnn2c(=O)n(CC(=O)N[C@@H](C)c3ccc(Cl)c(F)c3)nc2c1C,,,> 80,< 1,,,< 1,50,,> 80,< 1
C[C@H](NC(=O)Cn1nc2c(NC3COC3)ccnn2c1=O)c1ccc(Cl)c(F)c1,10,,> 80,,,,,> 80,1,> 80,< 1
CC[C@H](NC(=O)Cn1nc2cccnn2c1=O)c1ccc(Cl)c(F)c1,,25,> 80,,,1,≥ 100,,1,> 80,
O=C(Cn1nc2cccnn2c1=O)NC1(c2ccc(Cl)cc2)CC1,,< 25,50,≥ 100,,,≥ 100,,,50,≥ 100
C[C@H](NC(=O)Cn1nc2cc(Cl)cnn2c1=O)c1ccc(Cl)c(F)c1,1,,> 80,,,,,50,1,> 80,< 1
C[C@H](NC(=O)Cn1nc2c(N3CCC34CNC4)cccn2c1=O)c1ccc(Cl)c(F)c1,,25,> 80,,,1,≥ 100,,10,> 80,
COc1nc2nn(CC(=O)N[C@@H](C)c3ccc(Cl)c(F)c3)c(=O)n2cc1C,,,> 80,< 1,,,< 1,> 80,,> 80,< 1
Cc1ccc2nn(CC(=O)N[C@@H](C)c3ccc(Cl)c(F)c3)c(=O)n2n1,10,,> 80,< 1,,,,50,,> 80,< 1
C[C@H](NC(=O)Cn1nc2ncc(C3CC3)cn2c1=O)c1ccc(Cl)c(F)c1,1,,> 80,,,,,50,10,50,< 1
C[C@H](NC(=O)Cn1nc2cccnn2c1=O)c1ccc(Cl)c(F)c1,10,,> 80,,,1,,50,1,> 80,
O=C(Cn1nc2ccc(F)cn2c1=O)NC1(c2ccc(Cl)cc2)CC1,,25,> 80,≥ 100,25,10,≥ 100,,,,
CC(C)[C@H](NC(=O)Cn1nc2cccnn2c1=O)c1ccc(Cl)c(F)c1,,< 25,50,,,1,≥ 100,,1,50,
C[C@H](NC(=O)Cn1nc2c(C3CC3)ccnn2c1=O)c1ccc(Cl)c(F)c1,1,,> 80,< 1,,,,> 80,,> 80,< 1

# Continued, values first:
EC50 ([1]; cho-k1) [nM],Emax [2] [%],Emax [3] [%],EC50 [4] [nM],Emax [5] [%],EC50 ([6]; cho-k1) [nM],EC50 [1] [nM],Emax ([2]; filed as agonist) [%],EC50 ([4]; cho-k1) [nM],Emax ([5]; filed as agonist) [%],EC50 [6] [nM],Compound
10,25,> 80,≥ 100,< 25,1,,,,,,C[C@H](NC(=O)Cn1nc2ccc(C3CC3)nn2c1=O)c1ccc(OC(F)(F)F)cc1
1,,> 80,< 1,,,,> 80,,50,< 1,Cc1ccn2c(=O)n(CC(=O)N[C@@H](C)c3ccc(OC(F)(F)F)cc3)nc2c1
,25,50,≥ 100,25,1,≥ 100,,,,,Cc1cnc2nn(CC(=O)N[C@@H](C)c3ccc(OC(F)(F)F)cc3)c(=O)n2c1
,,> 80,,,1,≥ 100,> 80,1,> 80,,C[C@H](NC(=O)Cn1nc2cc(N3CCC[C@H](O)C3)ccn2c1=O)c1ccc(OC(F)(F)F)cc1
1,25,> 80,,,1,,,1,50,,Cc1ccc2nn(CC(=O)N[C@@H](C)c3ccc(Cl)cc3)c(=O)n2n1
,25,50,≥ 100,,,≥ 100,,,50,≥ 100,C[C@H](NC(=O)Cn1nc2cc(N3CCN(C)CC3)ccn2c1=O)c1ccc(OC(F)(F)F)cc1
1,,> 80,< 1,,1,,> 80,,> 80,,C[C@H](NC(=O)Cn1nc2ccccn2c1=O)c1ccc(Cl)c(F)c1
1,,> 80,< 1,,,,> 80,,50,< 1,COc1ccn2c(=O)n(CC(=O)N[C@@H](C)c3ccc(OC(F)(F)F)cc3)nc2c1
,25,50,≥ 100,25,,≥ 100,,,,≥ 100,Cc1ccc([C@H](C)NC(=O)Cn2nc3c(C4CCN(C)C4)cccn3c2=O)cc1 (some centres not stated)
1,,50,,,,,50,1,50,< 1,COc1cccc2nn(CC(=O)N[C@@H](C)c3ccc(Cl)cc3)c(=O)n12
1,,> 80,< 1,,,,> 80,,50,< 1,COc1ccn2c(=O)n(CC(=O)N[C@@H](C)c3ccc(Cl)c(F)c3)nc2c1
1,25,> 80,≥ 100,< 25,1,,,,,,COc1cnc2nn(CC(=O)N[C@@H](C)c3ccc(OC(F)(F)F)cc3)c(=O)n2c1
10,,> 80,< 1,,,,50,,> 80,< 1,Cc1ccc([C@H](C)NC(=O)Cn2nc3ccc(F)cn3c2=O)cc1
,,> 80,,,1,≥ 100,> 80,1,> 80,,C[C@H](NC(=O)Cn1nc2cc(N3CCC[C@@H](O)C3)ccn2c1=O)c1ccc(OC(F)(F)F)cc1
,,> 80,≥ 100,< 25,1,≥ 100,25,,,,C[C@H](NC(=O)Cn1nc2ncccn2c1=O)c1ccc(OC(F)(F)F)c(F)c1
,,> 80,≥ 100,25,1,≥ 100,50,,,,C[C@H](NC(=O)Cn1nc2cccc(N3CCN(C)CC3)n2c1=O)c1ccc(OC(F)(F)F)cc1
,,50,≥ 100,,10,≥ 100,> 80,,50,,C[C@H](NC(=O)Cn1nc2cc(OC3CN(C)C3)ccn2c1=O)c1ccc(OC(F)(F)F)cc1
,,50,< 1,,,≥ 100,> 80,,> 80,< 1,C[C@H](NC(=O)Cn1nc2cc(N3CCCCC3)ccn2c1=O)c1ccc(OC(F)(F)F)cc1
1,,> 80,,,,,50,1,50,< 1,Cc1ccc([C@H](C)NC(=O)Cn2nc3cc(Cl)ccn3c2=O)cc1
